Laboratory results as given in US20230123334A1, “AMINO LIPID COMPOUND, PREPARATION METHOD THEREFOR, AND APPLICATION THEREOF” (SHENZHEN SHENXIN BIOTECHNOLOGY CO., LTD., priority 2020, published 2023).

system: HEK293 cells; assay: Preliminary screening as mRNA vectors, EGFP mRNA transfection of HEK293 cells; type: cell-based; conditions: EGFP mRNA 50 ng per well, 96-well plates; percentage of GFP fluorescent cells relative to total number of cells (Hoechst)
How it was run: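 HEK293 cells in DMEM plus 10% FBS transfected in 96-well format with 50 ng EGFP mRNA per well; Lipofectamine2000 served as positive control. Read-out is the percentage of GFP-fluorescent cells among total cells, counted by Hoechst nuclear stain.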

| Compound | Absolute mRNA transfection efficiency in HEK293 cells [%] |
| --- | --- |
| CCCCCCCCCCCCCCCCSc1nc(NCCCCCCCCCCC)nc(NCCN2CCOCC2)n1 [Compound D2S16N11] | 4.1 |
| CCCCCCCCCCCCCCCCSc1nc(NCCCCCCCCCCCC)nc(NCCN2CCOCC2)n1 [Compound D2S16N12] | 1.2 |
| CCCCCCCCCCCCCCCCSc1nc(NCCCCCCCCCCCCC)nc(NCCN2CCOCC2)n1 [Compound D2S16N13] | 0.0 |
| CCCCCCCCCCCCCCCCSc1nc(NCCCCCCCCCCCCCCC)nc(NCCN2CCOCC2)n1 [Compound D2S16N15] | 0.2 |
| CCCCCCCCCCCCCCCCNc1nc(NCCN2CCOCC2)nc(SCCCCCCCCCCCCCCCC)n1 [Compound D2S16N16] | 0.0 |
| CCCCCCCCCCCCCCCCCCNc1nc(NCCN2CCOCC2)nc(SCCCCCCCCCCCCCCCC)n1 [Compound D2S16N18] | 0.0 |
| CCCCCCCCCCCCCCCCCCSc1nc(NCCCCCC)nc(NCCN2CCOCC2)n1 [Compound D2S18N6] | 0.4 |
| CCCCCCCCCCCCCCCCCCSc1nc(NCCCCCCC)nc(NCCN2CCOCC2)n1 [Compound D2S18N7] | 1.0 |
| CCCCCCCCCCCCCCCCCCSc1nc(NCCCCCCCC)nc(NCCN2CCOCC2)n1 [Compound D2S18N8] | 3.1 |
| CCCCCCCCCCCCCCCCCCSc1nc(NCCCCCCCCC)nc(NCCN2CCOCC2)n1 [Compound D2S18N9] | 0.4 |
| CCCCCCCCCCCCCCCCCCSc1nc(NCCCCCCCCCCC)nc(NCCN2CCOCC2)n1 [Compound D2S18N11] | 0.5 |
| CCCCCCCCCCCCCCCCCCSc1nc(NCCCCCCCCCCCC)nc(NCCN2CCOCC2)n1 [Compound D2S18N12] | 2.3 |
| CCCCCCCCCCCCCCCCCCSc1nc(NCCCCCCCCCCCCC)nc(NCCN2CCOCC2)n1 [Compound D2S18N13] | 0.0 |
| CCCCCCCCCCCCCCCCCCSc1nc(NCCCCCCCCCCCCCCC)nc(NCCN2CCOCC2)n1 [Compound D2S18N15] | 0.0 |
| CCCCCCCCCCCCCCCCCCSc1nc(NCCCCCCCCCCCCCCCC)nc(NCCN2CCOCC2)n1 [Compound D2S18N16] | 0.0 |
| CCCCCCCCCCCCCCCCCCNc1nc(NCCN2CCOCC2)nc(SCCCCCCCCCCCCCCCCCC)n1 [Compound D2S18N18] | 0.0 |
| CCCCCCNc1nc(NCCN2CCCC2)nc(SCCCCCC)n1 [Compound D3S6N6] | 0.1 |
| CCCCCCCNc1nc(NCCN2CCCC2)nc(SCCCCCC)n1 [Compound D3S6N7] | 0.2 |
| CCCCCCCCNc1nc(NCCN2CCCC2)nc(SCCCCCC)n1 [Compound D3S6N8] | 0.0 |
| CCCCCCCCCNc1nc(NCCN2CCCC2)nc(SCCCCCC)n1 [Compound D3S6N9] | 0.3 |
| CCCCCCCCCCCNc1nc(NCCN2CCCC2)nc(SCCCCCC)n1 [Compound D3S6N11] | 0.7 |

| Compound | Absolute mRNA transfection efficiency in HEK293 cells [%] |
| --- | --- |
| CCCCCCCCCCCCNc1nc(NCCN2CCCC2)nc(SCCCCCC)n1 [Compound D3S6N12] | 4.1 |
| CCCCCCCCCCCCCNc1nc(NCCN2CCCC2)nc(SCCCCCC)n1 [Compound D3S6N13] | 7.7 |
| CCCCCCCCCCCCCCCNc1nc(NCCN2CCCC2)nc(SCCCCCC)n1 [Compound D3S6N15] | 14.4 |
| CCCCCCCCCCCCCCCCNc1nc(NCCN2CCCC2)nc(SCCCCCC)n1 [Compound D3S6N16] | 37.3 |
| CCCCCCCCCCCCCCCCCCNc1nc(NCCN2CCCC2)nc(SCCCCCC)n1 [Compound D3S6N18] | 32.5 |
| CCCCCCSc1nc(NCCN2CCCC2)nc(SCCCCCC)n1 [Compound D3S6S6] | 1.9 |
| CCCCCCCSc1nc(NCCN2CCCC2)nc(SCCCCCC)n1 [Compound D3S6S7] | 1.3 |
| CCCCCCCCSc1nc(NCCN2CCCC2)nc(SCCCCCC)n1 [Compound D3S6S8] | 1.6 |
| CCCCCCCCCSc1nc(NCCN2CCCC2)nc(SCCCCCC)n1 [Compound D3S6S9] | 2.6 |
| CCCCCCCCCCSc1nc(NCCN2CCCC2)nc(SCCCCCC)n1 [Compound D3S6S10] | 2.5 |
| CCCCCCCCCCCSc1nc(NCCN2CCCC2)nc(SCCCCCC)n1 [Compound D3S6S11] | 0.7 |
| CCCCCCCCCCCCSc1nc(NCCN2CCCC2)nc(SCCCCCC)n1 [Compound D3S6S12] | 1.0 |
| CCCCCCCCCCCCCCSc1nc(NCCN2CCCC2)nc(SCCCCCC)n1 [Compound D3S6S14] | 0.3 |
| CCCCCCCCCCCCCCCSc1nc(NCCN2CCCC2)nc(SCCCCCC)n1 [Compound D3S6S15] | 12.0 |
| CCCCCCCCCCCCCCCCSc1nc(NCCN2CCCC2)nc(SCCCCCC)n1 [Compound D3S6S16] | 16.9 |
| CCCCCCCCCCCCCCCCCCSc1nc(NCCN2CCCC2)nc(SCCCCCC)n1 [Compound D3S6S18] | 36.8 |
| CCCCCCCSc1nc(NCCCCCC)nc(NCCN2CCCC2)n1 [Compound D3S7N6] | 5.8 |
| CCCCCCCNc1nc(NCCN2CCCC2)nc(SCCCCCCC)n1 [Compound D3S7N7] | 6.6 |
| CCCCCCCCNc1nc(NCCN2CCCC2)nc(SCCCCCCC)n1 [Compound D3S7N8] | 1.3 |
| CCCCCCCCCNc1nc(NCCN2CCCC2)nc(SCCCCCCC)n1 [Compound D3S7N9] | 2.8 |
| CCCCCCCCCCCNc1nc(NCCN2CCCC2)nc(SCCCCCCC)n1 [Compound D3S7N11] | 9.6 |

| Compound | Absolute mRNA transfection efficiency in HEK293 cells [%] |
| --- | --- |
| CCCCCCCCCCCCNc1nc(NCCN2CCCC2)nc(SCCCCCCC)n1 [Compound D3S7N12] | 6.5 |
| CCCCCCCCCCCCCNc1nc(NCCN2CCCC2)nc(SCCCCCCC)n1 [Compound D3S7N13] | 19.1 |
| CCCCCCCCCCCCCCCNc1nc(NCCN2CCCC2)nc(SCCCCCCC)n1 [Compound D3S7N15] | 33.7 |
| CCCCCCCCCCCCCCCCNc1nc(NCCN2CCCC2)nc(SCCCCCCC)n1 [Compound D3S7N16] | 25.0 |
| CCCCCCCCCCCCCCCCCCNc1nc(NCCN2CCCC2)nc(SCCCCCCC)n1 [Compound D3S7N18] | 39.8 |
| CCCCCCCSc1nc(NCCN2CCCC2)nc(SCCCCCCC)n1 [Compound D3S7S7] | 12.2 |
| CCCCCCCCSc1nc(NCCN2CCCC2)nc(SCCCCCCC)n1 [Compound D3S7S8] | 2.7 |
| CCCCCCCCCSc1nc(NCCN2CCCC2)nc(SCCCCCCC)n1 [Compound D3S7S9] | 12.6 |
| CCCCCCCCCCSc1nc(NCCN2CCCC2)nc(SCCCCCCC)n1 [Compound D3S7S10] | 3.3 |
| CCCCCCCCCCCSc1nc(NCCN2CCCC2)nc(SCCCCCCC)n1 [Compound D3S7S11] | 11.4 |
| CCCCCCCCCCCCSc1nc(NCCN2CCCC2)nc(SCCCCCCC)n1 [Compound D3S7S12] | 5.4 |
| CCCCCCCCCCCCCCSc1nc(NCCN2CCCC2)nc(SCCCCCCC)n1 [Compound D3S7S14] | 14.6 |
| CCCCCCCCCCCCCCCSc1nc(NCCN2CCCC2)nc(SCCCCCCC)n1 [Compound D3S7S15] | 12.0 |
| CCCCCCCCCCCCCCCCSc1nc(NCCN2CCCC2)nc(SCCCCCCC)n1 [Compound D3S7S16] | 11.6 |
| CCCCCCCCCCCCCCCCCCSc1nc(NCCN2CCCC2)nc(SCCCCCCC)n1 [Compound D3S7S18] | 7.9 |
| CCCCCCCCSc1nc(NCCCCCC)nc(NCCN2CCCC2)n1 [Compound D3S8N6] | 2.6 |
| CCCCCCCCSc1nc(NCCCCCCC)nc(NCCN2CCCC2)n1 [Compound D3S8N7] | 0.7 |
| CCCCCCCCNc1nc(NCCN2CCCC2)nc(SCCCCCCCC)n1 [Compound D3S8N8] | 3.0 |
| CCCCCCCCCNc1nc(NCCN2CCCC2)nc(SCCCCCCCC)n1 [Compound D3S8N9] | 3.2 |
| CCCCCCCCCCCNc1nc(NCCN2CCCC2)nc(SCCCCCCCC)n1 [Compound D3S8N11] | 6.6 |
| CCCCCCCCCCCCNc1nc(NCCN2CCCC2)nc(SCCCCCCCC)n1 [Compound D3S8N12] | 24.6 |
